In general, IC50 refers to the concentration at which inhibition is half-maximal. Higher therefore signals a need for much substance. In general, solubility refers to the dissolved amount per volume that the medium holds. A high value points to a readily soluble substance.

The results in this text go back to publication PMC10361207, “Cannabinoid and Opioid Receptor Affinity and Modulation of Cancer-Related Signaling Pathways of Machaeriols and Machaeridiols from Machaerium Pers” (Molecules, 2023).

The subject of one data set is ETS. Kind of data set: Luciferase reporter assay, ETS, HeLa. The class given is cell-based, human. As for the experimental part:
(§1) Hela cells (or T98G cells) from ATCC were plated in white opaque 384-well plates at a density of 4300 cells/well in 30 µL of growth medium (DMEM with 10% FBS and 1% Pen/Strep). The next day, the medium was aspirated and replaced with DMEM containing 1% FBS. The cells were transfected with respective plasmids using X-tremeGENE HP DNA transfection reagent (Roche). After 24 h of transfection, the test agents were added to the transfected cells, followed 30 min later by an inducing agent: interleukin 6 (IL-6) for Stat3, TGF-β for Smad, m-wnt3a for Wnt and PMA for AP-1, NF-κB, E2F, Myc, ETS, Notch and Hedgehog. No inducer was added for FoXO and pTK. After 4 h or 6 h of induction, the cells were lysed via the addition of the One-Glo luciferase assay system (Promega; Madison, WI). The light output was detected in a GloMax®-Multi+ Detection System with Instinct® Software (Promega E 8051). This luciferase assay determines if the test agent is able to inhibit the activation of cancer-related signaling pathways. In the case of FoxO, the enhanced luciferase activity via the test agent was assessed.
Background: In a reporter assay the amount or activity of a reporter protein is the signal.

Data set [1] is described as follows: Solubility in aqueous assay buffer. The following applies: aqueous buffer of the radioligand binding assay.
A further data set has as its system NF-κB. Kind of data set: Luciferase reporter assay, NF-κB, HeLa. The following applies: Homo sapiens; for IC50: HeLa cells, inducer PMA, dash: not inhibited by more than 40% at 50 µmol/L. The class given is cell-based. As to the method:
as §1

A further data set has as its system Stat3. Kind of data set: Luciferase reporter assay, Stat3, HeLa. The class given is cell-based, human. As for the experimental part: as §1
The subject of data set [2] is minimal thymidine kinase promoter (pTK). Kind of data set: Luciferase control vector pTK, HeLa. The class given is cell-based, human. To be noted: HeLa cells; up to 50 µM; no inducer. As for the experimental part: as §1
The next data set deals with T1, CB1 receptor (Homo sapiens, UniProt P21554).
T1 construct: expressed in transfected cells; host or cells: HEK293 (ATCC), stably transfected; membranes
Kind of data set: Competitive radioligand binding assay, CB1. To be noted: 10 μM; [3H]-CP55,940. As to the method: HEK293 cells stably transfected with δ, κ and μ opioid subtypes were a generous gift from Roth Laboratories (University of North Carolina at Chapel Hill, N.C., USA). CB and opioid cells were maintained as previously described.
Membranes were purified by first washing the cells with cold PBS and scraping the cells into cold 50 mM Tris-HCl, pH 7.4 buffer, which was centrifuged at 5200× g for 10 min at 4 °C; next, the supernatant was discarded, and the pellet was washed with more Tris-HCl buffer, homogenized via a Sonic Dismembrator (Fisher Scientific, Pittsburgh, PA, USA) and then centrifuged at 24,000× g for 40 min at 4 °C. Finally, the pellet was re-suspended in cold 50 mM Tris-HCl buffer, aliquoted into 2 mL vials and stored at −80 °C. The total membrane protein concentration was measured using a Pierce BCA Protein Assay Kit (Thermo Scientific, Rockford, IL, USA) as per the manufacturer’s protocol.
Cannabinoid and opioid competitive radioligand binding assays were performed as previously described. Saturation experiments were performed for all the receptors to determine the receptor concentration and radioligand dissociation constant (Kd) for the membrane. Percent displacements were evaluated for all the cannabinoid and opioid subtypes with a triplicate of a fixed concentration (10 µg/mL for extracts and fractions and 10 μM for purified compounds). […] Control/test compounds were dissolved in DMSO at 10 μg/mL for extracts and fractions and 10 μM for purified compounds. […] The percent displacement was calculated to represent the ability of the samples to displace the radioligand binding for a given cannabinoid or opioid receptor subtype.
The percent displacement was calculated as follows: 100−binding of compound−nonspecific binding/specific binding×100
The competitive binding assays were performed using 12 serial dilutions of each compound ranging from 0.002 to 300 μM (control compounds were serially diluted from 10 μM to 0.06 nM). The cannabinoid assays were incubated for 90 min at 37 °C with gentle agitation. The opioid assays were incubated for 60 min at room temperature. Bound radioligands were collected on GF/C (cannabinoid) or GF/B plates (opioid) and washed 10 times with ice-cold 50 mM Tris-HCl (pH 7.4)/0.1% BSA (cannabinoid) or ice-cold 50 mM Tris-HCl (pH 7.4) (opioid). Radiodetection was measured with 50 µL (cannabinoid) or 25 µL (opioid) of MicroScint^TM-20 on a TopCount NXT HTS Microplate Scintillation Counter (PerkinElmer, Waltham, MA, USA). The IC50 and Ki values were calculated via a non-linear curve fit model using GraphPad Prism 5.0 software (GraphPad Software, Inc., San Diego, CA, USA). Each compound was tested in triplicate unless stated otherwise.

The test system of a further data set is Myc. Kind of data set: Luciferase reporter assay, Myc, T98G. The class given is cell-based. To be noted: Homo sapiens; T98G cells; inducer PMA. As to the method:
as §1

The nature of data set [3]: Cytotoxicity, Neutral Red, SK-OV-3. To be noted: human, SK-OV-3 ovary carcinoma cells, Na = not active up to 50 µg/mL. The class given is cell-based. As to the method:
In vitro cytotoxic activity was determined against five human cancer cell lines—malignant melanoma (SK-MEL), epidermal carcinoma oral (KB), ductal carcinoma breast (BT-549), ovary carcinoma (SKOV-3) and cervical (HeLa) cancer cells—and two non-cancerous kidney cell lines (LLC-PK1 and Vero). All cell lines were obtained from the American Type Culture Collection (ATCC, Rockville, MD, USA). Each assay was performed in 96-well tissue culture-treated microplates. The cells were seeded at a density of 25,000 cells/well and incubated for 24 h. Samples at different concentrations were added, and the cells were incubated again for 48 h. At the end of the incubation, the cell viability was determined using Neutral Red dye according to a modification of the procedure used by Borenfreund et al.. IC50 values were determined from dose–response curves of the percent growth inhibition against test concentrations. Doxorubicin was used as a positive control, while DMSO was used as the negative (vehicle) control.

In the next data set the test system is Notch. Kind of data set: Luciferase reporter assay, Notch, HeLa. To be noted: Homo sapiens; for IC50: HeLa cells, inducer PMA, dash: not inhibited by more than 40% at 50 µmol/L. The class given is cell-based. As for the experimental part: as §1
In the next data set the test system is Smad2/3. Kind of data set: Luciferase reporter assay, Smad2/3, HeLa. The class given is cell-based, human. As for the experimental part: as §1
A further data set relates to Hedgehog. Kind of data set: Luciferase reporter assay, Hedgehog, HeLa. The class given is cell-based, human. As for the experimental part: as §1
The mark [4] stands for this setting: HeLa cells, inducer PMA, dash: not inhibited by more than 40% at 50 µmol/L.
[5] abbreviates: Homo sapiens, HeLa cells, inducer PMA, dash: not inhibited by more than 40% at 50 µmol/L.
Setting [6] is: Homo sapiens, HeLa cells, inducer IL6, dash: not inhibited by more than 40% at 50 µmol/L.
Where [7] appears, read: Homo sapiens, HeLa cells, inducer TGF-beta, dash: not inhibited by more than 40% at 50 µmol/L.

T1 sequence (P21554 whole entry): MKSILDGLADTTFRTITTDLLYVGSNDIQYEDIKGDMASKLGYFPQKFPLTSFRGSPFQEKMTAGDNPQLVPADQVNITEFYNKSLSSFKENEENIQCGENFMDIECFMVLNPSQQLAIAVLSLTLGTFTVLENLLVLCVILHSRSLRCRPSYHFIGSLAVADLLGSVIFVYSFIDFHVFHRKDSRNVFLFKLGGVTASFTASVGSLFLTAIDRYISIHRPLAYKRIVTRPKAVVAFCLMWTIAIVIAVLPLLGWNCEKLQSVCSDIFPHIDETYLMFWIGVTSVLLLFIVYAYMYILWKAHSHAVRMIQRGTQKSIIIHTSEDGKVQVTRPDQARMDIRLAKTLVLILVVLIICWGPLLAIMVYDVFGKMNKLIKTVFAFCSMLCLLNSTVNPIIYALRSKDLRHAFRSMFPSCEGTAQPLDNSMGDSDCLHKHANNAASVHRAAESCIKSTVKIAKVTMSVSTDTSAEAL

With `C=C(C)[C@H]1CC[C@H](C)C[C@@H]1c1c(O)cc(/C=C/c2ccccc2O)cc1O` [compound 6, machaeridiol B], the “IC50, ETS (PMA)” value with ETS (setting [4]) is “inactive”. In addition, the inhibition at 2 µM came to 107% in the data set on ETS (Homo sapiens, HeLa, 6 alone at 2 µM, compared to pTK as control, read-out: Additive effect (in % inhibition): percentage of luciferase induction, ETS (PMA)); 76% in the data set with NF-κB (HeLa, 6 alone at 2 µM, compared to pTK as control, read-out: Additive effect (in % inhibition): percentage of luciferase induction, NF-κB (PMA)); 82% with Stat3 (Homo sapiens, HeLa, 6 alone at 2 µM, compared to pTK as control, read-out: Additive effect (in % inhibition): percentage of luciferase induction, Stat3 (IL-6)); 103% in the data set on Notch (HeLa, 6 alone at 2 µM, compared to pTK as control, read-out: Additive effect (in % inhibition): percentage of luciferase induction, Notch- (PMA)); 109% in the data set with Smad2/3 (Homo sapiens, HeLa, 6 alone at 2 µM, compared to pTK as control, read-out: Additive effect (in % inhibition): percentage of luciferase induction, Smad2/3 (TGF-β)); 92% in the data set with Hedgehog (Homo sapiens, HeLa, 6 alone at 2 µM, compared to pTK as control, read-out: Additive effect (in % inhibition): percentage of luciferase induction, Hedgehog (PMA)). The IC50 was > 50 µM in the data set with ETS (setting [5]); 0.5 µM with NF-κB; 4.7 µM in the data set on Stat3 (setting [6]); 2 µM in the data set with Myc; 5.3 µM with Notch; 1.2 µM in the data set with Smad2/3 (setting [7]). Also, the IC50 in the data set with Hedgehog (setting [5]) is > 50 µM. For the same molecule, the solubility in [1] is < 33.3 µM. Moreover, in [2], the “Inhibition of luciferase expression driven by pTK” value is on record as “no inhibition”. In addition, at CB1 receptor, the “Percent displacement, CB1” value is 45.2%. In addition, in data set [3], the IC50 at 48 h is > 50 µg/mL. The “IC50, Hedgehog (PMA)” value in the data set with Hedgehog (setting [4]) is “inactive”.

Turning to `C[C@H]1CC[C@H]2[C@H](C1)c1c(O)cc(/C=C/c3ccccc3O)cc1OC2(C)C` [compound 3, machaeriol C], the inhibition at 10 µM was 66% with ETS (Homo sapiens, HeLa, 3 alone at 10 µM, compared to pTK as control, read-out: Additive effect (in % inhibition): percentage of luciferase induction, ETS (PMA)); 70% in the data set with NF-κB (HeLa, 3 alone at 10 µM, compared to pTK as control, read-out: Additive effect (in % inhibition): percentage of luciferase induction, NF-κB (PMA)); 92% in the data set with Stat3 (Homo sapiens, HeLa, 3 alone at 10 µM, compared to pTK as control, read-out: Additive effect (in % inhibition): percentage of luciferase induction, Stat3 (IL-6)); 115% with Notch (HeLa, 3 alone at 10 µM, compared to pTK as control, read-out: Additive effect (in % inhibition): percentage of luciferase induction, Notch- (PMA)); 93% in the data set with Smad2/3 (Homo sapiens, HeLa, 3 alone at 10 µM, compared to pTK as control, read-out: Additive effect (in % inhibition): percentage of luciferase induction, Smad2/3 (TGF-β)); 66% in the data set on Hedgehog (Homo sapiens, HeLa, 3 alone at 10 µM, compared to pTK as control, read-out: Additive effect (in % inhibition): percentage of luciferase induction, Hedgehog (PMA)). The IC50 is 15 µM in the data set on ETS (setting [5]); 11 µM in the data set with NF-κB; 38 µM in the data set on Stat3 (setting [6]); > 50 µM with Notch; 37 µM in the data set with Smad2/3 (setting [7]); 10 µM in the data set with Hedgehog (setting [5]). Further, the solubility in data set [1] is < 33.3 µM. Besides, the “IC50, Stat3 (IL6)” value at Stat3 (HeLa cells, inducer IL6, dash: not inhibited by more than 40% at 50 µmol/L) is recorded as “lacked activity”. Besides, the “Inhibition of luciferase expression driven by pTK” value in data set [2] is “no inhibition”. On CB1 receptor, the “Percent displacement, CB1” value is on record as 43.6%. The IC50 at 48 h in data set [3] was > 50 µg/mL. Moreover, the “IC50, Smad2/3 (TGF-beta)” value against Smad2/3 (HeLa cells, inducer TGF-beta, dash: not inhibited by more than 40% at 50 µmol/L) is recorded as “lacked activity”.
